# Source: PubChem BioAssay (NCI)
# Where “and” joins values, the source holds several entries; their conditions need not be identical. Equal entries are not always repeated.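 Cultured in 96-well plates, cells were exposed to test compound for 48 hours across five concentrations. GI50: concentration for 50% inhibition of growth. TGI marks complete inhibition of growth.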
# What was measured:
# Assay in all cases: NCI tumour cell line growth inhibition, 48 h
# K-562 leukemia = system: K-562 leukemia
# NCI-H226 lung = system: NCI-H226 lung
# NCI-H522 lung = system: NCI-H522 lung
# SF-268 CNS = system: SF-268 CNS
# SK-MEL-2 melanoma = system: SK-MEL-2 melanoma
# SN12C renal = system: SN12C renal
# SNB-19 CNS = system: SNB-19 CNS
# SNB-75 CNS = system: SNB-75 CNS
# U251 CNS = system: U251 CNS
# UO-31 renal = system: UO-31 renal
SMILES,TGI (K-562 leukemia),TGI (NCI-H226 lung),TGI (NCI-H522 lung),TGI (SF-268 CNS),TGI (SK-MEL-2 melanoma),TGI (SN12C renal),TGI (SNB-19 CNS),TGI (SNB-75 CNS),TGI (U251 CNS),TGI (UO-31 renal),GI50 (K-562 leukemia),GI50 (NCI-H226 lung),GI50 (NCI-H522 lung),GI50 (SF-268 CNS),GI50 (SK-MEL-2 melanoma),GI50 (SN12C renal),GI50 (SNB-19 CNS),GI50 (SNB-75 CNS),GI50 (U251 CNS),GI50 (UO-31 renal)
COC(=O)C12C3C4C5C3(C#N)C1C5(C(=O)OC)C42C(=O)N(C(C)C)C(C)C (centres undefined),> 73.8 µM,> 100 µM,> 53.4 µM,> 100 µM,> 100 µM,> 100 µM,> 100 µM,> 100 µM,> 100 µM,> 100 µM,–,–,–,–,–,–,–,–,–,–
COC(=O)C(=O)C(C#N)c1ccc(CC#N)cc1 (centres undefined),> 100 µM,> 100 µM,> 100 µM,> 100 µM,> 100 µM,> 100 µM,> 100 µM,> 100 µM,> 100 µM,> 100 µM,–,–,–,–,–,–,–,–,–,–
C=CCN1C=CC(=O)[C@H](O[Si](C)(C)C(C)(C)C)[C@@H]1/C=C/c1ccccc1,31.3 µM,36.9 µM,28.3 µM,30.9 µM,34.2 µM,27.3 µM,35.3 µM,22.7 µM,25.2 µM,25.1 µM,9.56 µM,17.9 µM,13 µM,15.1 µM,17 µM,13.8 µM,20.7 µM,10.5 µM,12.4 µM,9.19 µM
Cc1ccc(C(=O)C(Cl)C(Cl)c2ccc(C)cc2)cc1 (centres undefined),7.15 µM,11.4 µM,10.7 µM,21.2 µM,36.2 µM,3.88 µM,23.3 µM,23 µM,12.4 µM,3.73 µM,–,–,–,–,–,–,–,–,–,–
O=c1[nH]c2c3ccccc3ccc2c2cc3c(cc12)OCO3,> 100 µM,> 100 µM,> 100 µM,> 100 µM,> 100 µM,> 100 µM,> 100 µM,> 100 µM,> 100 µM,> 100 µM,–,–,–,–,–,–,–,–,–,–
CCCCc1ccc(-n2c3nc(=O)n(C)c(=O)c-3nc3ccccc32)cc1,33.6 µM,26.6 µM,20.2 µM,34.1 µM,24 µM,20.9 µM,21.2 µM,30.3 µM,23.5 µM,25.1 µM,–,–,–,–,–,–,–,–,–,–
C=CCN(CC=C)C(=O)c1cc(C)nc2c1c(=O)n(-c1ccccc1)c(=O)n2CC(O)CN1CCN(c2ncccn2)CC1 (centres undefined),> 100 µM,> 100 µM,> 100 µM,> 100 µM,> 100 µM,> 100 µM,> 100 µM,> 100 µM,> 100 µM,> 100 µM,> 100 µM,> 100 µM,> 100 µM,17.2 µM,> 100 µM,> 100 µM,> 100 µM,29 µM,> 100 µM,> 100 µM
Cc1ccc(-c2nc(N)nc3c2nnn3Cc2cccc(CO[C@H]3CCOC3)n2)o1,> 100 µM,> 100 µM,> 100 µM,> 100 µM,> 100 µM,> 100 µM,> 100 µM,> 100 µM,> 100 µM,> 100 µM,> 100 µM,> 100 µM,> 100 µM,> 100 µM,> 100 µM,> 100 µM,> 100 µM,41.5 µM,> 100 µM,> 100 µM
COc1c(Cl)c2c(c(OC)c1OC)-c1ccc(SC)c(=O)cc1[C@@H](NC(=O)OCC(F)(F)F)CC2,> 100 µM,41.5 µM,3.46 µM,> 90.5 µM,> 100 µM,> 100 µM,> 100 µM,> 100 µM,> 39.2 µM,> 61.9 µM,< 0.01 µM,< 0.01 µM,< 0.01 µM,< 0.0105 µM,4.2 µM,< 0.01 µM,< 0.01 µM,< 0.01 µM,< 0.01 µM,–
C1CCN(C2OC3C(COC3N3CCCCC3)OC2OC2CCO[C@@H]2N2CCCCC2)CC1 (some centres undefined),> 100 µM,54.1 µM,25.8 µM,> 100 µM,> 100 µM,> 100 µM,> 100 µM,46.2 µM,> 100 µM,> 100 µM,–,–,–,–,–,–,–,–,–,–
C=C1C(=O)[C@@]23CC1C(O)[C@@H](OC(C)=O)[C@@H]2C1(C)C(OC(C)=O)C[C@@H](OC(C)=O)C(C)(C)[C@@H]1C[C@H]3OC(C)=O (some centres undefined),3.71 µM and 2.86 µg/mL,> 10 µM and 7.24 µg/mL,2.64 µM and 1.44 µg/mL,> 10 µM and 28.3 µg/mL,> 10 µM and 5.65 µg/mL,> 10 µM and 17 µg/mL,> 10 µM and 31.1 µg/mL,> 10 µM and 20.5 µg/mL,> 10 µM and 27 µg/mL,> 10 µM and 16.3 µg/mL,1.55 µM and 0.573 µg/mL,3.11 µg/mL,1.31 µM and 0.288 µg/mL,> 10 µM and 6.82 µg/mL,> 10 µM and 2.46 µg/mL,5.5 µg/mL,> 10 µM and 17.2 µg/mL,> 10 µM and 7.25 µg/mL,> 10 µM and 13.9 µg/mL,> 10 µM and 6.65 µg/mL
COC(=O)c1c2c(c(C)[n+]([O-])c1C)C(=O)C=C(NCc1ccc(OC)cc1)C2=O,15.3 µM,7.94 µM,5.16 µM,8.27 µM,6.64 µM,4.3 µM,5.58 µM,9.53 µM,5.48 µM,6.83 µM,2.68 µM,2.66 µM,1.82 µM,2.24 µM,2.14 µM,1.69 µM,2.12 µM,5.12 µM,2.05 µM,2.2 µM
c1cc(OCCN2CCCCC2)ccc1CNc1ccc2nc(CCC3CCCCC3)[nH]c2c1,3.6 µM,4.29 µM,3.94 µM,5.43 µM,3.62 µM,3.33 µM,10.4 µM,4.08 µM,2.94 µM,2.85 µM,0.852 µM,1.83 µM,1.98 µM,2.08 µM,1.88 µM,1.52 µM,3.05 µM,1.62 µM,1.49 µM,1.49 µM
COc1ccc(CNc2c3ccccc3nc3ccc(OC)cc23)cc1,11.1 µM,9.14 µM,14.3 µM,15.2 µM,6.2 µM,12.6 µM,16 µM,8.24 µM,11.2 µM,9.13 µM,2.27 µM,2.54 µM,3.17 µM,3.75 µM,2.37 µM,3.31 µM,4.14 µM,2.19 µM,3.18 µM,1.93 µM
CCOC(=O)C1=C(Nc2ccc(Cl)cc2Cl)OC/C1=N\NS(=O)(=O)c1ccc(C)cc1,> 100 µM,> 100 µM,> 100 µM,> 100 µM,> 100 µM,> 100 µM,> 100 µM,> 100 µM,> 100 µM,> 100 µM,–,–,–,–,–,–,–,–,–,–
